Measured values as given in patent US20190124918A1, “BIOFILM FORMATION INHIBITOR AND BIOFILM FORMATION INHIBITING COMPOSITION” (KAO CORPORATION, priority 2016, published 2019).

Columns and labels:
Type in all cases: cell-based
[1] = system: Pseudomonas PAO1 strain (ATCC 15692); assay: Amount of biofilm formed (crystal violet, OD570), 96-well microplate culture
Procedure, shortened: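 PAO1 suspension in Mueller Hinton Broth (OD600 1/10^6) grown stationary 24 h at 30 °C with compounds dried from ethanol plus DMSO, final about 7–333 ppm or as listed. Biofilm stained with 0.1% crystal violet, ethanol-eluted, OD570; inhibition % = {1−(compound OD570/ethanol-control OD570)}×100.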

[2] = system: cooling water taken from a water cooling tower; assay: Aqueous system model (annular reactor): number of bacterial cells in water at inlet and outlet (R2A agar); conditions: Test Example 4; 15 ppm in cooling water; solvent control also about 10^4
Procedure: Biofilm formation inhibitory activity of p-toluquinone (Tokyo Kasei) was evaluated by an aqueous system model using an annular reactor (Art Science Co., Ltd.) having a 100 mL-volume culture tank. In the culture tank of the annular reactor, a cylindrical rotating body rotating at a speed of 160 rounds per minute was installed. To the rotating body, 12 test pieces were attached in advance. These test pieces were taken out at predetermined time intervals and biofilm formed on the test pieces was quantified. From a water cooling tower provided on a building rooftop and actually used, cooling water was taken and supplied to the annular reactor culture vessel (maintained at 30° C.) at a flow rate of 10 mL per minute; at the same time, an ethanol solution (15 g/L) of p-toluquinone was separately supplied to the annular reactor culture vessel by a syringe pump YSP-201 (manufactured by YMC) at a flow rate of 10 μL per minute (p-toluquinone concentration in cooling water in the culture tank was 15 ppm). The test pieces (n=2) taken out from the culture tank at predetermined time intervals were stained with 0.1% crystal violet, thoroughly washed twice with physiological saline and recovered in ethanol (15 mL). The absorbance (OD570) was measured to obtain the amount of the biofilm formed. […] Thereafter, the number of bacteria cells was measured. […]

[3] = system: biofilm-forming microbe isolated from cooling water taken from a water cooling tower; assay: Biofilm inhibition test, quinone-based compound and organic solvent (OD570); conditions: alone or added as test solution in organic solvent, no addition gave 2.831
Procedure: A biofilm-forming microbe (microbe providing a OD570 value of 0.3 or more in the test for determining the amount of biofilm in the following section 4-3) isolated from cooling water taken from a water cooling tower was cultured in R2A culture medium at 30° C. for 16 hours while shaking. The turbidity (OD600) of the resultant culture solution was measured. The culture solution was diluted with R2A culture medium to prepare a suspension of 10^3 cfu/mL.
The suspension of a test microbe prepared in the above section 4-1) was added in individual wells of a 96 well microplate in an amount of 150 μL. Thereafter, the test solution prepared in the above section 2) was add and culture was initiated.
The 96 well microplate was subjected to stationary culture performed at 30° C. for 48 hours. The culture solution was removed and the resultant microplate was washed with water. Subsequently, each well was stained with 0.1% crystal violet and 200 μL of ethanol was added. The absorbance (OD570) was measured to obtain the amount of biofilm (BF) formed.

With `CC1=CC(=O)C=CC1=O` [Compound a, p-Toluquinone] the “The amount of the biofilm formed OD570” value ([1]; final concentration 7 ppm, EtOH control 0.9163) was 0.7549, the “BF inhibition (%)” value ([1]; final concentration 17 ppm) was 18.6% and the “The amount of the biofilm formed OD570” value ([1]; final concentration 20 ppm, EtOH control 0.9564) was 0.8231. For the same compound, the “BF inhibition (%)” value ([1]; final concentration 33 ppm) was 36.6%, the “The amount of the biofilm formed OD570” value ([1]; final concentration 33 ppm, EtOH control 0.8974) was 0.7891 and the “BF inhibition (%)” value ([1]; final concentration 66 ppm) was 39.9%. For the same compound, the “The amount of the biofilm formed OD570” value ([1]; final concentration 67 ppm, EtOH control 0.8853) was 0.7094, the “BF inhibition (%)” value ([1]; final concentration 99 ppm) was 73.7% and the “BF inhibition (%)” value ([1]; final concentration 116 ppm) was 86.3%. For the same compound, the “BF inhibition (%)” value ([1]; final concentration 132 ppm) was 85.1%, the “The amount of the biofilm formed OD570” value ([1]; final concentration 200 ppm, EtOH control 0.9248) was 0.7089 and the “The amount of the biofilm formed OD570” value ([1]; final concentration 333 ppm, EtOH control 0.9562) was 0.1222. The “biofilm formation (in words)” value ([1]; high concentration range of 200 ppm or more) was “inhibited”, the “biofilm formation (in words)” value ([1]; low concentration range of less than 200 ppm) was “inhibited” and the “number of bacterial cells at the inlet or outlet of the reactor” value [2] was “about 10^4 cells/mL”. For the same compound, the OD570 ([3]; Toluquinone 10 ppm) was 0.119 and the OD570 ([3]; Toluquinone 20 ppm) was 0.083.
